test system: HBsAg; assay: HBsAg assay: chemiluminescence immunoassay (CLIA) of secreted HBsAg in supernatant of HepG2.2.15 cells; assay type: cell-based, HBV; settings: Hepatitis B virus
Procedure: HepG2.2.15 cells (Acs et al. Proc Natl Acad Sci USA, 84, (1987), 4641-4), a constitutively HBV-expressing cell line were cultured in DMEM+Glutamax-I medium (Invitrogen, Carlsbad, Calif., USA), supplemented with 10% fetal bovine serum (Invitrogen) and G418 (Invitrogen) at a final concentration of 200 mg/L and maintained in 5% CO2 at 37° C.
HepG2.2.15 cells were seeded in duplicate into white, 96-well plates at 1.5×10^4 cells/well. The cells were treated with a three-fold serial dilution series of the compounds in DMSO. The final DMSO concentration in all wells was 1% and DMSO was used as no drug control.
The HBsAg chemiluminescence immunoassay (CLIA) kit (Autobio Diagnostics Co., Zhengzhou, China, Catalog number: CL0310-2) was used to measure the levels of secreted HBV antigens semi-quantitatively. For the detection 50 μL/well culture supernatant was used and HBsAg was quantified using HBsAg chemiluminescence immunoassay (CLIA) kit (Autobio Diagnostics Co., Zhengzhou, China, Catalog number: CL0310-2), 50 μL of the supernatant was transferred to the CLIA assay plate and 50 μL of enzyme conjugate reagent was added into each well. The plates were sealed and gently agitated for 1 hour at room temperature. The supernatant-enzyme-mixture was discarded and wells were washed 6 times with 300 μL of PBS. The residual liquid was removed by plating the CLIA plate […] on absorbent tissue paper. 25 μL of substrates A and B were added to each well. Luminance was measured using a luminometer (Mithras LB 940 Multimode Microplate Reader) after 10 minutes incubation. Dose-response curves were generated and the IC50 value was extrapolated by using the E-WorkBook Suite (ID Business Solutions Ltd., Guildford, UK). The IC50 was defined as the compound concentration (or conditioned media log dilution) at which HBsAg secretion was reduced by 50% compared to the no drug control.

Question: With `CN(C(=O)CN1N=C(c2ccc(Cl)c(F)c2)CCC1=O)c1cccc(Cl)c1` [Example 1-24, 2-[3-(4-Chloro-3-fluoro-phenyl)-6-oxo-4,5-dihydropyridazin-1-yl]-N-(3-chlorophenyl)-N-methyl-acetamide] as the compound, how does the IC50 read?
Answer: The IC50 was 168 nM.

Question: `Cc1cc(Cl)ccc1C1=NN(CC(=O)N(C)c2ccc(Cl)cc2)C(=O)CC1` [Example 1-26, 2-[3-(4-Chloro-2-methylphenyl)-6-oxo-4,5-dihydropyridazin-1-yl]-N-(4-chlorophenyl)-N-methyl-acetamide] was tested. Which IC50 did it give?
Answer: Its IC50 is 1880 nM.

Question: With `CN(C(=O)Cn1nc(-c2ccc(Cl)cc2)cnc1=O)c1ccc(Cl)cc1` [Example 3-2, N-(4-Chlorophenyl)-2-[6-(4-chlorophenyl)-3-oxo-1,2,4-triazin-2-yl]-N-methyl-acetamide] as the compound, how does the IC50 read?
Answer: The IC50 was 6230 nM.

Question: How did the IC50 turn out when `CN(C(=O)CN1N=C(c2ccc(Cl)cc2)CCC1=O)c1ccc(Cl)c(F)c1` [Example 1-4, N-(4-Chloro-3-fluoro-phenyl)-2-[3-(4-chlorophenyl)-6-oxo-4,5-dihydropyridazin-1-yl]-N-methyl-acetamide] was run?
Answer: The IC50 was 994 nM.

Question: For `Cc1cc(C2=NN(CC(=O)N(C)c3ccc(C(F)(F)F)cc3)C(=O)CC2)ccc1F` [Example 1-36, 2-[3-(4-Fluoro-3-methyl-phenyl)-6-oxo-4,5-dihydropyridazin-1-yl]-N-methyl-N-[4-(trifluoromethyl)phenyl]acetamide], which IC50 is on record?
Answer: Its IC50 is 3100 nM.

Question: `CN(C(=O)CN1N=C(c2ccc(Cl)cc2)CNC1=O)c1ccc(C(F)(F)F)cc1` [Example 3-1, 2-[6-(4-Chlorophenyl)-3-oxo-4,5-dihydro-1,2,4-triazin-2-yl]-N-methyl-N-[4-(trifluoromethyl)phenyl]acetamide] was tested. Which IC50 did it give?
Answer: The IC50 was 10300 nM.

Question: With `CN(C(=O)CN1N=C(c2ccc(F)c(F)c2)CCC1=O)c1cccc(C(F)(F)F)c1` [Example 1-52, 2-[3-(3,4-Difluorophenyl)-6-oxo-4,5-dihydropyridazin-1-yl]-N-methyl-N-[3-(trifluoromethyl)phenyl]acetamide] as the compound, how does the IC50 read?
Answer: The IC50 was 470 nM.

Question: For `CN(C(=O)CN1N=C(c2ccc(Cl)cc2)CCC1=O)c1ccc(F)cc1` [Example 1-6, 2-[3-(4-Chlorophenyl)-6-oxo-4,5-dihydropyridazin-1-yl]-N-(4-fluorophenyl)-N-methyl-acetamide], which IC50 is on record?
Answer: The IC50 was 3630 nM.

Question: Which IC50 does the source give for `Cc1ccc(C2=NN(CC(=O)N(C)c3ccc(Cl)cc3)C(=O)CC2)cc1` [Example 1-56, N-(4-Chlorophenyl)-N-methyl-2-[6-oxo-3-(p-tolyl)-4,5-dihydropyridazin-1-yl]acetamide] here?
Answer: Its IC50 is 9510 nM.

Question: How did the IC50 turn out when `CN(C(=O)CN1N=C(c2ccc(Cl)cc2)CCC1=O)c1cccc(C(F)(F)F)c1` [Example 1-19, 2-[3-(4-Chlorophenyl)-6-oxo-4,5-dihydropyridazin-1-yl]-N-methyl-N-[3-(trifluoromethyl)phenyl]acetamide] was run?
Answer: Its IC50 is 1000 nM.

Question: How did the IC50 turn out when `CN(C(=O)CN1N=C(c2ccc(Cl)cc2)CCC1=O)c1ccc(C(=O)NC2CCCCC2)cc1` [Example 1-15, 4-[[2-[3-(4-Chlorophenyl)-6-oxo-4,5-dihydropyridazin-1-yl]acetyl]-methyl-amino]-N-cyclohexyl-benzamide] was run?
Answer: Its IC50 is 5240 nM.

Question: With `Cc1cc(Cl)ccc1C1=NN(CC(=O)N(C)c2cccc(C(F)(F)F)c2)C(=O)CC1` [Example 1-29, 2-[3-(4-Chloro-2-methylphenyl)-6-oxo-4,5-dihydropyridazin-1-yl]-N-methyl-N-[3-(trifluoromethyl)phenyl]acetamide] as the compound, how does the IC50 read?
Answer: The IC50 was 483 nM.

Question: With `CN(C(=O)CN1N=C(c2ccc(Cl)c(F)c2)CCC1=O)c1ccc(F)cc1` [Example 1-22, 2-[3-(4-Chloro-3-fluoro-phenyl)-6-oxo-4,5-dihydropyridazin-1-yl]-N-(4-fluorophenyl)-N-methyl-acetamide] as the compound, how does the IC50 read?
Answer: Its IC50 is 940 nM.

Question: `CN(C(=O)Cn1nc(-c2ccc(Cl)cc2)ccc1=O)c1ccc(C(F)(F)F)cc1` [Example 2-1, 2-[3-(4-Chlorophenyl)-6-oxo-pyridazin-1-yl]-N-methyl-N-[4-(trifluoromethyl)phenyl]acetamide] was tested. Which IC50 did it give?
Answer: The IC50 was 900 nM.

Question: How did the IC50 turn out when `CN(C(=O)CN1N=C(c2ccc(Cl)cc2)CCC1=O)c1ccc(Cl)c(Cl)c1` [Example 1-8, 2-[3-(4-Chlorophenyl)-6-oxo-4,5-dihydropyridazin-1-yl]-N-(3,4-dichlorophenyl)-N-methyl-acetamide] was run?
Answer: The IC50 was 246 nM.

Question: For `CN(C(=O)CN1N=C(c2ccc(C(F)(F)F)cc2)CCC1=O)c1ccc(F)cc1` [Example 1-43, N-(4-Fluorophenyl)-N-methyl-2-[6-oxo-3-[4-(trifluoromethyl)phenyl]-4,5-dihydropyridazin-1-yl]acetamide], which IC50 is on record?
Answer: The IC50 was 2470 nM.

Question: Which IC50 does the source give for `CN(C(=O)CN1N=C(c2ccc(Cl)cc2)CCC1=O)c1ccc(C(F)(F)F)c(F)c1` [Example 1-3, 2-[3-(4-Chlorophenyl)-6-oxo-4,5-dihydropyridazin-1-yl]-N-[3-fluoro-4-(trifluoromethyl)phenyl]-N-methyl-acetamide] here?
Answer: The IC50 was 301 nM.

Question: `CN(C(=O)CN1N=C(c2ccc(F)c(F)c2)CCC1=O)c1ccc(C(F)(F)F)cc1` [Example 1-53, 2-[3-(3,4-Difluorophenyl)-6-oxo-4,5-dihydropyridazin-1-yl]-N-methyl-N-[4-(trifluoromethyl)phenyl]acetamide] was tested. Which IC50 did it give?
Answer: Its IC50 is 860 nM.

Question: For `CN(C(=O)CN1N=C(c2ccc(Cl)c(Cl)c2)CCC1=O)c1ccc(C(F)(F)F)cc1` [Example 1-45, 2-[3-(3,4-Dichlorophenyl)-6-oxo-4,5-dihydropyridazin-1-yl]-N-methyl-N-[4-(trifluoromethyl)phenyl]acetamide], which IC50 is on record?
Answer: Its IC50 is 230 nM.

Question: For `CN(C(=O)CN1N=C(c2ccc(Cl)c(F)c2)CCC1=O)c1cccc(F)c1` [Example 1-23, 2-[3-(4-Chloro-3-fluoro-phenyl)-6-oxo-4,5-dihydropyridazin-1-yl]-N-(3-fluorophenyl)-N-methyl-acetamide], which IC50 is on record?
Answer: The IC50 was 460 nM.

Question: With `CN(C(=O)CN1N=C(c2ccc(Cl)cc2)CCC1=O)c1ccc(F)cc1F` [Example 1-13, 2-[3-(4-Chlorophenyl)-6-oxo-4,5-dihydropyridazin-1-yl]-N-(2,4-difluorophenyl)-N-methyl-acetamide] as the compound, how does the IC50 read?
Answer: The IC50 was 6610 nM.

Question: `CN(C(=O)CN1N=C(c2ccc(Cl)cc2)CCC1=O)c1ccc(OC(F)(F)F)cc1` [Example 1-16, 2-[3-(4-Chlorophenyl)-6-oxo-4,5-dihydropyridazin-1-yl]-N-methyl-N-[4-(trifluoromethoxy)phenyl]acetamide] was tested. Which IC50 did it give?
Answer: Its IC50 is 3860 nM.

Question: `CN(C(=O)CN1N=C(c2ccc(F)cc2F)CCC1=O)c1cccc(C(F)(F)F)c1` [Example 1-31, 2-[3-(2,4-Difluorophenyl)-6-oxo-4,5-dihydropyridazin-1-yl]-N-methyl-N-[3-(trifluoromethyl)phenyl]acetamide] was tested. Which IC50 did it give?
Answer: The IC50 was 830 nM.

Question: For `CN(C(=O)CN1N=C(c2ccc(C(F)(F)F)cc2)CCC1=O)c1cccc(Cl)c1` [Example 1-39, N-(3-Chlorophenyl)-N-methyl-2-[6-oxo-3-[4-(trifluoromethyl)phenyl]-4,5-dihydropyridazin-1-yl]acetamide], which IC50 is on record?
Answer: The IC50 was 369 nM.

Question: `CN(C(=O)CN1N=C(c2ccc(C(F)(F)F)cc2)CCC1=O)c1cccc(C(F)(F)F)c1` [Example 1-41, N-Methyl-2-[6-oxo-3-[4-(trifluoromethyl)phenyl]-4,5-dihydropyridazin-1-yl]-N-[3-(trifluoromethyl)phenyl]acetamide] was tested. Which IC50 did it give?
Answer: The IC50 was 250 nM.

Question: `CN(C(=O)CN1N=C(c2ccc(C(F)(F)F)cc2)CCC1=O)c1ccc(Cl)cc1` [Example 1-44, N-(4-Chlorophenyl)-N-methyl-2-[6-oxo-3-[4-(trifluoromethyl)phenyl]-4,5-dihydropyridazin-1-yl]acetamide] was tested. Which IC50 did it give?
Answer: The IC50 was 960 nM.

Question: For `Cc1cc(C2=NN(CC(=O)N(C)c3ccc(C(F)(F)F)c(F)c3)C(=O)CC2)ccc1F` [Example 1-38, 2-[3-(4-Fluoro-3-methyl-phenyl)-6-oxo-4,5-dihydropyridazin-1-yl]-N-[3-fluoro-4-(trifluoromethyl)phenyl]-N-methyl-acetamide], which IC50 is on record?
Answer: The IC50 was 2350 nM.

Question: Which IC50 does the source give for `CN(C(=O)CN1N=C(c2ccc(Cl)cc2)CCC1=O)c1ccc(Cl)cc1` [Example 1-1, N-(4-Chlorophenyl)-2-[3-(4-chlorophenyl)-6-oxo-4,5-dihydropyridazin-1-yl]-N-methyl-acetamide] here?
Answer: The IC50 was 1580 nM.

Question: For `CN(C(=O)Cn1nc(-c2ccc(Cl)cc2F)ccc1=O)c1ccc(C(F)(F)F)cc1` [Example 2-3, 2-[3-(4-Chloro-2-fluoro-phenyl)-6-oxo-pyridazin-1-yl]-N-methyl-N-[4-(trifluoromethyl)phenyl]acetamide], which IC50 is on record?
Answer: The IC50 was 1500 nM.

Question: `Cc1cc(Cl)ccc1C1=NN(CC(=O)N(C)c2cccc(F)c2)C(=O)CC1` [Example 1-28, 2-[3-(4-Chloro-2-methyl-phenyl)-6-oxo-4,5-dihydropyridazin-1-yl]-N-(3-fluorophenyl)-N-methyl-acetamide] was tested. Which IC50 did it give?
Answer: Its IC50 is 4590 nM.

Question: With `CN(C(=O)CN1N=C(c2ccc(Br)cc2)CCC1=O)c1ccccc1` [Example 1-49, 2-[3-(4-Bromophenyl)-6-oxo-4,5-dihydropyridazin-1-yl]-N-methyl-N-phenyl-acetamide] as the compound, how does the IC50 read?
Answer: Its IC50 is 3870 nM.

Question: How did the IC50 turn out when `CN(C(=O)CN1N=C(c2cccc(Cl)c2)CCC1=O)c1ccc(Cl)cc1` [Example 1-57, N-(4-Chlorophenyl)-2-[3-(3-chlorophenyl)-6-oxo-4,5-dihydropyridazin-1-yl]-N-methyl-acetamide] was run?
Answer: The IC50 was 3020 nM.
